Experiment [1] concerns HFD mice. Nature of the experiment: Periovarian and abdominal wall fat pad thickness, adipocyte size and accumulated fat weight in HFD-supplied mice. The experiment is classed as in vivo, ICR mice. The conditions noted are these: test materials 200 mg/kg oral, Metformin 250 mg/kg, mean±SD for 8 mice.
The test system of experiment [2] is HFD mice. Nature of the experiment: Body weight and total body/abdominal fat density (DEXA) in HFD-supplied mice. Format: in vivo, ICR mice. The conditions noted are these: test materials 200 mg/kg, metformin 250 mg/kg. How it is done:
Specifically, after acclimating total 200 6-week-old female ICR mice to a laboratory environment for 7 days, they were adapted to HFD (45% Kcal high fat diet) 1 week before the start of administration of the experimental substance, and then the experimental substance was administered, and in the normal control group, a general NFD (Normal pellet diet) was supplied by the same method.
As the experimental substance, the LB (lemon balm extract) and CS (corn silk extract) alone and 9 kinds of LB:CS complexes (LB:CS=1:1, 1:2, 1:4, 1:6, 1:8, 2:1, 4:1, 6:1 and 8:1 (g/g)) as described in Table 1 above were used. The administration dose of the experimental substance was equally set to 200 mg/kg in total based on the medicinal efficacy investigation research of the present inventors. The experimental substance was dissolved in sterile distilled water and orally administered.
In addition, the total body fat and abdominal fat density were measured using DEXA (live dual-energy x-ray absorptiometry) and the result was shown in FIG. 4.

The source of these data is patent publication US20240066090A1, “COMPOSITION FOR PREVENTING, AMELIORATING, OR TREATING METABOLIC SYNDROMES INCLUDING OBESITY, DIABETES, HYPERLIPIDEMIA, AND FATTY LIVER” (NUTRACORE CO., LTD., priority 2019, published 2024).

SMILES strings stand for the structures.

Turning to `CN(C)C(=N)N=C(N)N` [Metformin], in the experiment with HFD mice [1], the “Abdominal wall fat pads Adipocyte diameters” value is given as 64.49 ± 13.74^ab μm, the “Abdominal wall fat pads Thickness” value is given as 2.99 ± 0.49^fg mm, the “Periovarian fat pads Adipocyte diameters” value was 48.12 ± 6.36^fg μm and the “Periovarian fat pads Thickness” value is listed as 2.83 ± 0.43^ab mm. In addition, in the experiment on HFD mice [2], the “Time after the start of administration at which a significant (p<0.01 or p<0.05) decrease of body weight and fat density compared to the HFD control group began” value is on record as 21 days. For the same molecule, in the experiment on HFD mice [2] (84 days), the “Body weight and fat density during the 84-day administration period, compared to the HFD control group (groups listed in order of effect)” value is “significant (p<0.01) decrease”.
